Columns and labels:
Assay in all cases: drug sensitivity score (DSS) from 5-point dose-response viability curve (DSS (area-under-curve based score)); higher = more sensitive (stronger growth inhibition or killing); extreme values may be limits of the assay
Settings in all cases: exposure time: 72 h; concentration range: 5 concentrations over 10,000-fold range
CAOV3 = system: CAOV3
Summary of the method: (§1)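 Viability of ovarian cancer and normal ovarian cell lines was read by CellTiter-Glo luminescence after 3 days at 37°C and 5% CO2 in 384-well plates holding 1,500 cells per well. Drugs had been dispensed in DMSO or water with an Echo 550 at five concentrations over a 10,000-fold range. Using Breeze software, a drug sensitivity score was assigned per cell line and drug, higher scores meaning more sensitive, and zero means no response.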

OV90 = system: OV90
Summary of the method: as §1

COV362 = system: COV362
Summary of the method: as §1

Kuramochi = system: Kuramochi
Summary of the method: as §1

HOSE2C = system: HOSE2C
Summary of the method: as §1

OVCAR5 = system: OVCAR5
Summary of the method: as §1

Ovsaho = system: Ovsaho
Summary of the method: as §1

OVCAR4 = system: OVCAR4
Summary of the method: as §1

JHOS2 = system: JHOS2
Summary of the method: as §1

COV318 = system: COV318
Summary of the method: as §1

OVCAR8 = system: OVCAR8
Summary of the method: as §1

HOSE1C = system: HOSE1C
Summary of the method: as §1

C[C@@H]1C[C@H]2[C@@H]3CCC4=CC(=O)C=C[C@]4(C)[C@@]3(F)[C@@H](O)C[C@]2(C)[C@@]1(O)C(=O)CO [Dexamethasone]
drug sensitivity score (CAOV3): 0 | drug sensitivity score (OV90): 0 | drug sensitivity score (COV362): 0.5 | drug sensitivity score (Kuramochi): 0 | drug sensitivity score (HOSE2C): 0 | drug sensitivity score (OVCAR5): 0 | drug sensitivity score (Ovsaho): 0 | drug sensitivity score (OVCAR4): 0 | drug sensitivity score (JHOS2): 0 | drug sensitivity score (COV318): 0 | drug sensitivity score (OVCAR8): 0 | drug sensitivity score (HOSE1C): 0

C[C@H]1O[C@@H](O[C@H]2[C@@H](O)C[C@H](O[C@H]3[C@@H](O)C[C@H](O[C@H]4CC[C@@]5(C)[C@H](CC[C@@H]6[C@@H]5C[C@@H](O)[C@]5(C)[C@@H](C7=CC(=O)OC7)CC[C@]65O)C4)O[C@@H]3C)O[C@@H]2C)C[C@H](O)[C@@H]1O [Digoxin]
drug sensitivity score (CAOV3): 6.2 | drug sensitivity score (OV90): 7.2 | drug sensitivity score (COV362): 10.8 | drug sensitivity score (Kuramochi): 8.5 | drug sensitivity score (HOSE2C): 9.5 | drug sensitivity score (OVCAR5): 7.5 | drug sensitivity score (Ovsaho): 7.1 | drug sensitivity score (OVCAR4): 9.6 | drug sensitivity score (JHOS2): 10.9 | drug sensitivity score (COV318): 11.9 | drug sensitivity score (OVCAR8): 11.2 | drug sensitivity score (HOSE1C): 11.1

CCc1cnn2c(NCc3ccc[n+]([O-])c3)cc(N3CCCC[C@H]3CCO)nc12 [Dinaciclib]
drug sensitivity score (CAOV3): 17.9 | drug sensitivity score (OV90): 21.2 | drug sensitivity score (COV362): 13.6 | drug sensitivity score (Kuramochi): 13.1 | drug sensitivity score (HOSE2C): 15.4 | drug sensitivity score (OVCAR5): 17.9 | drug sensitivity score (Ovsaho): 17.9 | drug sensitivity score (OVCAR4): 15.7 | drug sensitivity score (JHOS2): 19 | drug sensitivity score (COV318): 15.9 | drug sensitivity score (OVCAR8): 20.7 | drug sensitivity score (HOSE1C): 28

CC(=O)O[C@@]12CO[C@@H]1C[C@H](O)[C@@]1(C)C(=O)[C@H](O)C3=C(C)[C@@H](OC(=O)[C@H](O)[C@@H](NC(=O)OC(C)(C)C)c4ccccc4)C[C@@](O)([C@@H](OC(=O)c4ccccc4)[C@H]21)C3(C)C [Docetaxel]
drug sensitivity score (CAOV3): 28.7 | drug sensitivity score (OV90): 15.5 | drug sensitivity score (COV362): 9.3 | drug sensitivity score (Kuramochi): 16 | drug sensitivity score (HOSE2C): 27.6 | drug sensitivity score (OVCAR5): 23.4 | drug sensitivity score (Ovsaho): 10.3 | drug sensitivity score (OVCAR4): 8.1 | drug sensitivity score (JHOS2): 13.9 | drug sensitivity score (COV318): 9.5 | drug sensitivity score (OVCAR8): 27.7 | drug sensitivity score (HOSE1C): 29.3

Cc1ccc(-n2nc(C(C)(C)C)cc2NC(=O)Nc2ccc(OCCN3CCOCC3)c3ccccc23)cc1 [Doramapimod]
drug sensitivity score (CAOV3): 0 | drug sensitivity score (OV90): 1.5 | drug sensitivity score (COV362): 0 | drug sensitivity score (Kuramochi): 0.6 | drug sensitivity score (HOSE2C): 2.9 | drug sensitivity score (OVCAR5): 1.1 | drug sensitivity score (Ovsaho): 2.9 | drug sensitivity score (OVCAR4): 2.4 | drug sensitivity score (JHOS2): 0 | drug sensitivity score (COV318): 0 | drug sensitivity score (OVCAR8): 1.8 | drug sensitivity score (HOSE1C): 5

CN1CCN(c2ccc3nc(-c4c(N)c5c(F)cccc5[nH]c4=O)[nH]c3c2)CC1 [Dovitinib]
drug sensitivity score (CAOV3): 0 | drug sensitivity score (OV90): 0 | drug sensitivity score (COV362): 0 | drug sensitivity score (Kuramochi): 0 | drug sensitivity score (HOSE2C): 0 | drug sensitivity score (OVCAR5): 0 | drug sensitivity score (Ovsaho): 0 | drug sensitivity score (OVCAR4): 0.6 | drug sensitivity score (JHOS2): 0 | drug sensitivity score (COV318): 0 | drug sensitivity score (OVCAR8): 0 | drug sensitivity score (HOSE1C): 0

COc1cccc2c1C(=O)c1c(O)c3c(c(O)c1C2=O)C[C@@](O)(C(=O)CO)C[C@@H]3O[C@H]1C[C@H](N)[C@H](O)[C@H](C)O1 [Doxorubicin]
drug sensitivity score (CAOV3): 8.6 | drug sensitivity score (OV90): 6.7 | drug sensitivity score (COV362): 2.3 | drug sensitivity score (Kuramochi): 6.2 | drug sensitivity score (HOSE2C): 0 | drug sensitivity score (OVCAR5): 4.6 | drug sensitivity score (Ovsaho): 7.6 | drug sensitivity score (OVCAR4): 3.5 | drug sensitivity score (JHOS2): 5.9 | drug sensitivity score (COV318): 3.6 | drug sensitivity score (OVCAR8): 8.8 | drug sensitivity score (HOSE1C): 0

C[C@H](Nc1ncnc2nc[nH]c12)c1cc2cccc(Cl)c2c(=O)n1-c1ccccc1 [Duvelisib]
drug sensitivity score (CAOV3): 0.1 | drug sensitivity score (OV90): 0 | drug sensitivity score (COV362): 0 | drug sensitivity score (Kuramochi): 2 | drug sensitivity score (HOSE2C): 0 | drug sensitivity score (OVCAR5): 0 | drug sensitivity score (Ovsaho): 1.4 | drug sensitivity score (OVCAR4): 0.7 | drug sensitivity score (JHOS2): 0 | drug sensitivity score (COV318): 0 | drug sensitivity score (OVCAR8): 0 | drug sensitivity score (HOSE1C): 0.2

Cc1ccc(NS(=O)(=O)c2cccc(C#N)c2)c2[nH]cc(C#N)c12 [E7820]
drug sensitivity score (CAOV3): 4.8 | drug sensitivity score (OV90): 2.7 | drug sensitivity score (COV362): 0 | drug sensitivity score (Kuramochi): 0.8 | drug sensitivity score (HOSE2C): 5 | drug sensitivity score (OVCAR5): 3.3 | drug sensitivity score (Ovsaho): 1.2 | drug sensitivity score (OVCAR4): 4.4 | drug sensitivity score (JHOS2): 10.7 | drug sensitivity score (COV318): 2.8 | drug sensitivity score (OVCAR8): 3.3 | drug sensitivity score (HOSE1C): 7.3

Cc1cc(Nc2cc(N3CCN(C)CC3)nc(/C=C/c3ccccc3)n2)n[nH]1 [ENMD-2076]
drug sensitivity score (CAOV3): 10.3 | drug sensitivity score (OV90): 8.4 | drug sensitivity score (COV362): 6.3 | drug sensitivity score (Kuramochi): 8.5 | drug sensitivity score (HOSE2C): 10.3 | drug sensitivity score (OVCAR5): 9.6 | drug sensitivity score (Ovsaho): 8.8 | drug sensitivity score (OVCAR4): 5.8 | drug sensitivity score (JHOS2): 5.1 | drug sensitivity score (COV318): 4.9 | drug sensitivity score (OVCAR8): 8 | drug sensitivity score (HOSE1C): 7.7

Cc1cc(C)c(CNC(=O)c2cc(-c3ccc(CN4CCOCC4)cc3)cc3c2cnn3C2CCCC2)c(=O)[nH]1 [EPZ-5687]
drug sensitivity score (CAOV3): 0 | drug sensitivity score (OV90): 0 | drug sensitivity score (COV362): 1.1 | drug sensitivity score (Kuramochi): 0 | drug sensitivity score (HOSE2C): 0 | drug sensitivity score (OVCAR5): 1.8 | drug sensitivity score (Ovsaho): 0 | drug sensitivity score (OVCAR4): 0 | drug sensitivity score (JHOS2): 0 | drug sensitivity score (COV318): 0 | drug sensitivity score (OVCAR8): 0 | drug sensitivity score (HOSE1C): 0

NC(=O)/C(=C/n1cnc(-c2cc(C(F)(F)F)cc(C(F)(F)F)c2)n1)c1cncnc1 [Eltanexor]
drug sensitivity score (CAOV3): 18.9 | drug sensitivity score (OV90): 13.2 | drug sensitivity score (COV362): 10.9 | drug sensitivity score (Kuramochi): 10.9 | drug sensitivity score (HOSE2C): 15.7 | drug sensitivity score (OVCAR5): 14.8 | drug sensitivity score (Ovsaho): 19.3 | drug sensitivity score (OVCAR4): 13.7 | drug sensitivity score (JHOS2): 19 | drug sensitivity score (COV318): 7.5 | drug sensitivity score (OVCAR8): 21.5 | drug sensitivity score (HOSE1C): 34.6

CC(C)(O)CNc1nc(Nc2ccnc(C(F)(F)F)c2)nc(-c2cccc(C(F)(F)F)n2)n1 [Enasidenib]
drug sensitivity score (CAOV3): 0 | drug sensitivity score (OV90): 0 | drug sensitivity score (COV362): 1.1 | drug sensitivity score (Kuramochi): 0 | drug sensitivity score (HOSE2C): 0 | drug sensitivity score (OVCAR5): 0 | drug sensitivity score (Ovsaho): 0 | drug sensitivity score (OVCAR4): 0 | drug sensitivity score (JHOS2): 0 | drug sensitivity score (COV318): 0 | drug sensitivity score (OVCAR8): 0.9 | drug sensitivity score (HOSE1C): 0
